These results are taken from PubChem BioAssay (NCI).

Among the test systems are ACHN renal; KM20L2 colon; LOX IMVI melanoma; LXFL 529 NSCLC; NCI-H226 lung; NCI-H460 lung; RXF 393 renal; U251 CNS; UO-31 renal.
Holding throughout (experiment): DTP human tumour cell line panel, 48 h

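Growth conditions: 96-well plates. Treatment: test compound, 48 hours, 5 concentrations. Analysis: linear interpolation between bracketing concentrations; unreached endpoints set to highest concentration. GI50 is the concentration that inhibits growth by half. TGI marks complete inhibition of growth.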

A word on the TGI: it is the concentration giving total growth inhibition. Higher therefore signals less potent growth arrest. On to `CC(=O)Nc1ccc(/C=C2\N=C(c3ccccc3)OC2=O)cc1`, for which the TGI in the experiment on ACHN renal, in the experiment on KM20L2 colon, in the experiment with LOX IMVI melanoma, with LXFL 529 NSCLC, in the experiment on NCI-H226 lung and in the experiment with NCI-H460 lung was above 100 µM throughout. Moreover, the TGI with RXF 393 renal, in the experiment on U251 CNS and in the experiment with UO-31 renal was above 100 µM throughout.

For `CCOC(=O)C(NO)C(Sc1ccccc1)c1ccc(OC)cc1` (centres undefined), the TGI in the experiment on ACHN renal, in the experiment with KM20L2 colon, with LOX IMVI melanoma, in the experiment on LXFL 529 NSCLC, in the experiment on NCI-H226 lung and in the experiment on NCI-H460 lung was above 100 µM each time. Besides, the figures for the TGI in the experiment on RXF 393 renal, in the experiment with U251 CNS and with UO-31 renal were 52.3 µM, above 100 µM and above 100 µM, respectively.

In general, GI50 refers to the concentration that inhibits growth by half. As for `CC(=O)[CH-]C(=O)c1ccccc1.CC(=O)[CH-]C(=O)c1ccccc1.CC(C)CCC[C@H](C)C1CCC2[C@@H]3CC=C4C[C@@H]([O-])CC[C@]4(C)C3CC[C@@]21C.CC(C)CCC[C@H](C)C1CCC2[C@@H]3CC=C4C[C@@H]([O-])CC[C@]4(C)C3CC[C@@]21C.Cl.[Ti+4]` (some centres undefined), the GI50 in the experiment with ACHN renal, with KM20L2 colon, in the experiment on LOX IMVI melanoma, in the experiment with LXFL 529 NSCLC, with NCI-H226 lung and in the experiment with NCI-H460 lung was above 25 µM throughout. For the same compound, the GI50 with RXF 393 renal, in the experiment with U251 CNS and in the experiment with UO-31 renal was above 25 µM in each case. Moreover, the total growth inhibition concentration (TGI) in the experiment on ACHN renal, with KM20L2 colon, in the experiment on LOX IMVI melanoma, in the experiment on LXFL 529 NSCLC, in the experiment on NCI-H226 lung and in the experiment with NCI-H460 lung was above 25 µM in each case. Moreover, the TGI in the experiment with RXF 393 renal, in the experiment on U251 CNS and with UO-31 renal was above 25 µM throughout.

On to `CN(C)CCn1cnc2ncccc2c1=O`, for which the total growth inhibition concentration (TGI) with ACHN renal, with KM20L2 colon, in the experiment with LOX IMVI melanoma, in the experiment on LXFL 529 NSCLC, in the experiment on NCI-H226 lung and in the experiment on NCI-H460 lung was above 100 µM throughout. For the same compound, the TGI in the experiment on RXF 393 renal, in the experiment on U251 CNS and in the experiment on UO-31 renal was above 100 µM in each case.

For the compound `COc1ccc(S(=O)(=O)N[C@H](C(=O)O)c2ccccc2)cc1`, the TGI in the experiment on ACHN renal, in the experiment with KM20L2 colon, with LOX IMVI melanoma, in the experiment with LXFL 529 NSCLC, in the experiment with NCI-H226 lung and with NCI-H460 lung was above 100 µM each time. Besides, the TGI in the experiment with RXF 393 renal, in the experiment with U251 CNS and in the experiment on UO-31 renal was above 100 µM throughout.

Regarding `COC(=O)C1C(=O)O[C@@H](c2ccc(OC)c(OC)c2OC)C1C(=O)OC` (mixture of isomers), the TGI in the experiment with ACHN renal, in the experiment with KM20L2 colon, with LOX IMVI melanoma, in the experiment on LXFL 529 NSCLC, with NCI-H226 lung and with NCI-H460 lung was above 100 µM in each case. In addition, the TGI in the experiment with RXF 393 renal, with U251 CNS and in the experiment with UO-31 renal was above 100 µM each time.

As to `COC1[C@H](NC(=O)OC(C)(C)C)C(=O)N1Cc1ccccc1` (some centres undefined), the TGI with ACHN renal, in the experiment with KM20L2 colon, in the experiment on LOX IMVI melanoma, with LXFL 529 NSCLC, in the experiment with NCI-H226 lung and in the experiment on NCI-H460 lung was above 100 µM each time. Further, the TGI in the experiment with RXF 393 renal, with U251 CNS and in the experiment with UO-31 renal was above 100 µM each time.

Consider `CC1CCC(=O)C(C(O)CC2CC(=O)N(c3ccccc3)C(=O)C2)C1` (centres undefined), for which the TGI in the experiment with ACHN renal, in the experiment on KM20L2 colon, in the experiment on LOX IMVI melanoma, in the experiment with LXFL 529 NSCLC, with NCI-H226 lung and with NCI-H460 lung was above 100 µM in each case. Besides, the TGI in the experiment on RXF 393 renal, in the experiment on U251 CNS and in the experiment with UO-31 renal was above 100 µM in each case.

As to `Cc1nc(N)c(-c2ccccc2)s1`, the TGI in the experiment on ACHN renal was above 100 µM; in the experiment on KM20L2 colon, above 100 µM; in the experiment on LOX IMVI melanoma, above 94.4 µM; in the experiment with LXFL 529 NSCLC it was above 100 µM; in the experiment with NCI-H226 lung it was above 100 µM; in the experiment with NCI-H460 lung, above 100 µM. Also, the values for the total growth inhibition concentration (TGI) with RXF 393 renal, in the experiment with U251 CNS and with UO-31 renal were above 68.9 µM, above 76.4 µM and above 100 µM, respectively.

With `O=C(CO[N+](=O)[O-])OC/C=C/c1ccccc1`, the concentration for total growth inhibition (TGI) with ACHN renal, in the experiment with KM20L2 colon, in the experiment with LOX IMVI melanoma, in the experiment with LXFL 529 NSCLC, with NCI-H226 lung and with NCI-H460 lung was above 100 µM throughout. Also, the concentration for total growth inhibition (TGI) in the experiment with RXF 393 renal, in the experiment on U251 CNS and in the experiment with UO-31 renal was above 100 µM in each case.
